The target in assay [1] is T1, 5-hydroxytryptamine receptor 1A (Homo sapiens, UniProt P08908).
T1 sequence (P08908 whole entry): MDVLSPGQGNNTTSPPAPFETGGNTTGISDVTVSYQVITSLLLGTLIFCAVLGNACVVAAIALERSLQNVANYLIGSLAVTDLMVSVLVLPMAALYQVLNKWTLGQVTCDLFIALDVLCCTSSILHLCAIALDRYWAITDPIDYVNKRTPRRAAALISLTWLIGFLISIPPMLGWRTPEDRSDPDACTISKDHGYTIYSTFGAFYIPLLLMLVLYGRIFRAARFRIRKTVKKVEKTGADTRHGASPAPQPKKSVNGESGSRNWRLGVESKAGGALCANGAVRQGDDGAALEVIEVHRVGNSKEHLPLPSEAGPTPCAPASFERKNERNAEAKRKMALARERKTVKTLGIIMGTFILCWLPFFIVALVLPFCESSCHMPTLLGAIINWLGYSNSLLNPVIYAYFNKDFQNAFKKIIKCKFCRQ
The experiment in a line: Binding affinity was determined towards 5-hydroxytryptamine 1A receptor using [3H]8-OH-DPAT as radioligand.

Assay [2] deals with T2, Sodium-dependent serotonin transporter (Rattus norvegicus, UniProt P31652). The experiment in a line: Binding affinity towards serotonin [5-HT] reuptake site labeled with [3H]paroxetine as radioligand.
T2 sequence (P31652 whole entry): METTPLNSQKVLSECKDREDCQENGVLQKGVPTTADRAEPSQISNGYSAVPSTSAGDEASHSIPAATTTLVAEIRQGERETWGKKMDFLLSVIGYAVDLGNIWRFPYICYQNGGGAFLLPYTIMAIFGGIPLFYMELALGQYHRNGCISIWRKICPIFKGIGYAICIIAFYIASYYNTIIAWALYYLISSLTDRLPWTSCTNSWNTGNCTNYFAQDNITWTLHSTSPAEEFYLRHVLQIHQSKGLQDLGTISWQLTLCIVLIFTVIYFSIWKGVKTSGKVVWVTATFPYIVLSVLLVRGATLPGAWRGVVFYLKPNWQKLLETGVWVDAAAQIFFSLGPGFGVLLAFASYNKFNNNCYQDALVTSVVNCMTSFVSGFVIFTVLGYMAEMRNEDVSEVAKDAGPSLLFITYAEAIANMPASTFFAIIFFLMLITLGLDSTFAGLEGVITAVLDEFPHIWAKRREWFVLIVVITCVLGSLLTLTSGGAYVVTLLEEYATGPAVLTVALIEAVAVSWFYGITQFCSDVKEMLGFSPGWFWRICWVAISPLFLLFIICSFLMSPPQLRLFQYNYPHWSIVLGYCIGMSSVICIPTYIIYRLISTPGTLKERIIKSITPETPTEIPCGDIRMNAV
The target of assay [3] is T1, 5-hydroxytryptamine receptor 1A. The experiment in a line: Binding affinity towards 5-hydroxytryptamine 1A receptor using [3H]8-OH-DPAT as radioligand.
The target of assay [4] is T3, 5-hydroxytryptamine receptor 1A (Homo sapiens) (UniProt P08908).
T3 sequence (whole entry): T1 sequence (P08908 whole entry)
Put plainly: Maximal response as a result of 5-HT1A receptor-mediated stimulation of [35S]GTP-gamma-S, binding. It counts as functional. A general note: GTPγS resists hydrolysis and so accumulates on activated G proteins.

Assay [5] has as its target T2, Sodium-dependent serotonin transporter. Put plainly: Binding affinity towards Serotonin transporter labeled with [3H]paroxetine as radioligand.
The target of assay [6] is T3, 5-hydroxytryptamine receptor 1A (Homo sapiens). The experiment in a line: Maximal response as a result of 5-hydroxytryptamine 1A receptor-mediated stimulation of [35S]GTP-gamma-S, binding. It counts as functional.
The target in assay [7] is Sodium-dependent serotonin transporter (Rattus norvegicus) (UniProt P31652). Put plainly: Inhibitory activity against serotonin [5-HT] reuptake site labeled with [3H]-paroxetine as radioligand at 100 nM concentration.
Sequence of Sodium-dependent serotonin transporter (Rattus norvegicus) (P31652 whole entry): as above
Assay [8] addresses T3, 5-hydroxytryptamine receptor 1A (Homo sapiens). Put plainly: Inhibitory activity against 5-hydroxytryptamine 1A receptor using [3H]-8-OH-DPAT as radioligand at 100 nM concentration.
Assay [9] addresses Sodium-dependent serotonin transporter (Rattus norvegicus) (UniProt P31652). Put plainly: Inhibitory activity against Serotonin transporter labeled with [3H]-paroxetine as radioligand at 100 nM concentration.
In assay [10] the target is T1, 5-hydroxytryptamine receptor 1A. Put plainly: Binding affinity towards 5-HT1A receptor using [3H]8-OH-DPAT as radioligand.
Assay [11] concerns the target Sodium-dependent serotonin transporter (Rattus norvegicus) (UniProt P31652). Put plainly: Inhibitory activity against serotonin [5-HT] reuptake site labeled with [3H]paroxetine as radioligand at 100 nM concentration.

Results on 28 compounds are retold here after ChEMBL document CHEMBL1136520, “Advances toward new antidepressants beyond SSRIs: 1-aryloxy-3-piperidinylpropan-2-ols with dual 5-HT1A receptor antagonism/SSRI activities. Part 1” (Bioorg Med Chem Lett, 2003).

For `Cc1c(C2CCN(C[C@H](O)COc3cccc4[nH]ccc34)CC2)sc2ccccc12`, the Ki in assay [1] worked out at 6.28 nM; in [2] it was 24.1 nM.

As to `COc1cccc2cc(C3CCN(C[C@H](O)COc4cccc5[nH]ccc45)CC3)sc12`, the Ki amounted to 6.13 nM in assay [3] and 94.3 nM in [5]. Further, the Emax in [4] stood at 9.32%.

As for `Cc1cc2c(OC[C@@H](O)CN3CCC(c4cc5cc(F)ccc5s4)CC3)cccc2[nH]1`, the Ki was found to be 7.5 nM in assay [1] and 5.27 nM in assay [2]. Moreover, in [6], the Emax amounted to 12.1%.

`COc1ccc2c(C)c(C3CCN(C[C@H](O)COc4cccc5[nH]ccc45)CC3)sc2c1` returned a Ki in assay [1] of 6.07 nM. This compound also yielded an inhibition in assay [7] below 50%.

Turning to `Cc1cc(C)c2cc(C3CCN(C[C@H](O)COc4cccc5[nH]ccc45)CC3)sc2c1`, the inhibition in [7] and in assay [8] was below 50% each time.

In the case of `O[C@H](COc1cccc2[nH]ccc12)CN1CCC(c2cc3ccc(F)cc3s2)CC1`, the Ki turned out to be 9.31 nM in assay [1] and 1.99 nM in [2]. In assay [6], this compound registered an Emax of 11.7%.

For the compound `O[C@H](COc1cccc2[nH]ccc12)CN1CCC(c2cc3cc(F)ccc3s2)CC1`, the results for the Ki in assay [1] and in assay [2] were 29.4 nM and 11.8 nM, respectively. For the same compound, in [6], the Emax was determined as 13.2%.

Compound `COc1cccc2sc(C3CCN(C[C@H](O)COc4cccc5[nH]ccc45)CC3)cc12` registered a Ki in [2] of 12.6 nM. In assay [6], this compound registered an Emax of 7.47%.

Turning to `Oc1cccc2cc(C3CCN(C[C@H](O)COc4cccc5[nH]ccc45)CC3)sc12`, the Ki in [1] was determined as 7.12 nM; in assay [2], 37.2 nM. In [6], the Emax amounted to 12.5%.

In assay [9], `CC(C)Oc1cccc2sc(C3CCN(C[C@H](O)COc4cccc5[nH]ccc45)CC3)cc12` returned an inhibition below 50%. For the same compound, the Ki in [10] was 7.45 nM.

Turning to `O[C@H](COc1cccc2[nH]ccc12)CN1CCC(c2cc3c(Cl)cccc3s2)CC1`, the figures for the Ki in assay [1] and in assay [2] were 9.12 nM and 15.6 nM, respectively.

With `Cc1cccc2sc(C3CCN(C[C@H](O)COc4cccc5[nH]ccc45)CC3)cc12`, the Ki in assay [1] was found to be 4.7 nM; in [2], 3.69 nM. In addition, in assay [6], the Emax was determined as 17%.

On to `Cc1cc2c(OC[C@@H](O)CN3CCC(c4cc5c(F)cccc5s4)CC3)cccc2[nH]1`, for which the Ki is 14.1 nM in [1] and 34.2 nM in [2]. The same compound displayed a maximal effect (Emax) in [6] of 11.6%.

Consider `Cc1c(C2CCN(C[C@H](O)COc3cccc4[nH]ccc34)CC2)sc2ccc(F)cc12`, for which the inhibition in assay [11] was below 50%. For the same compound, the Ki in assay [1] turned out to be 5.17 nM.

Regarding `O[C@H](COc1cccc2[nH]ccc12)CN1CCC(c2cc3c(F)cccc3s2)CC1`, the Ki in assay [1] came to 6.79 nM; in assay [2], 15.9 nM. For the same compound, in assay [6], the Emax stood at 11.2%.

The compound `COc1ccc2sc(C3CCN(C[C@H](O)COc4cccc5[nH]ccc45)CC3)cc2c1` had an inhibition in assay [9] below 50%. The compound further displayed an inhibition constant (Ki) in assay [10] of 1.44 nM.

On to `Cc1cc(C)c2cc(C3CCN(C[C@H](O)COc4cccc5[nH]c(C)cc45)CC3)sc2c1`, for which the Ki worked out at 27.8 nM in assay [1] and 52.1 nM in [2]. The compound also came in with an Emax in [6] of 13.4%.

For `Cc1ccc2cc(C3CCN(C[C@H](O)COc4cccc5[nH]ccc45)CC3)sc2c1`, the Ki in assay [1] came to 12.7 nM; in assay [2], 50.5 nM. Besides, the Emax in assay [6] is 13.8%.

For the compound `Cc1cc2c(OC[C@@H](O)CN3CCC(c4cc5c(C)cccc5s4)CC3)cccc2[nH]1`, the Ki in [1] is 10.4 nM; in assay [2], 17.4 nM. The Emax in assay [6] was found to be 12.1%.

For `COc1cccc2sc(C3CCN(C[C@H](O)COc4cccc5[nH]c(C)cc45)CC3)cc12`, the Ki in assay [1] turned out to be 4.83 nM; in assay [2], 51.2 nM. The same compound had an Emax in [6] of 9.05%.

In the case of `Cc1cc2c(OC[C@@H](O)CN3CCC(c4cc5ccc(F)cc5s4)CC3)cccc2[nH]1`, the Ki in assay [1] was determined as 15.3 nM; in assay [2] it was 11.3 nM. Also, in assay [6], the Emax turned out to be 12.6%.

On to `O[C@H](COc1cccc2[nH]ccc12)CN1CCC(c2cc3cc(Cl)ccc3s2)CC1`, for which the Ki in assay [1] amounted to 7.21 nM; in assay [2], 105 nM. The compound also gave a maximum response (Emax) in assay [6] of 11%.

`COc1ccc2cc(C3CCN(C[C@H](O)COc4cccc5[nH]ccc45)CC3)sc2c1`: the Ki in [3] was 3.13 nM; in assay [5], 68.7 nM. The compound also had an Emax in assay [4] of 4.92%.

On to `Cc1ccc2cc(C3CCN(C[C@H](O)COc4cccc5[nH]c(C)cc45)CC3)sc2c1`, for which the inhibition in assay [11] is below 50%. Further, affinity in assay [1] was put at a Ki of 22.6 nM.

In turn, `Oc1ccc2cc(C3CCN(C[C@H](O)COc4cccc5[nH]ccc45)CC3)sc2c1` came in with an inhibition in assay [11] below 50%. In assay [1], this compound showed a Ki of 3.09 nM.

As to `CC(C)Oc1ccc2cc(C3CCN(C[C@H](O)COc4cccc5[nH]ccc45)CC3)sc2c1`, the inhibition in [9] was below 50%. In addition, in [3], the affinity corresponds to a Ki of 19.9 nM.

On to `O[C@H](COc1cccc2[nH]ccc12)CN1CCC(c2cc3ccccc3s2)CC1`, for which the Ki in assay [1] was found to be 3.7 nM; in assay [2], 16.7 nM. The Emax in [6] was determined as 12.3%.

Take `O[C@H](COc1cccc2[nH]ccc12)CN1CCC(c2cc3ccc(Cl)cc3s2)CC1`: the Ki in [1] came to 7.64 nM; in [2], 14 nM.

One may read the Ki as the equilibrium dissociation constant of an inhibitor or competing ligand from its target. A higher Ki goes with weaker binding. As usually defined, the Emax is the maximal effect, on the per cent scale that the assay sets. As usually defined, the inhibition is how much of the control response was suppressed. The low end stands for little suppression, the high end for strong suppression.
